In patent publication US20030170893A1, “NANOCAPSULE ENCAPSULATION SYSTEM AND METHOD” (Genesegues, Inc., priority 2000, published 2003):

Legend:
[1] = system: squamous cell carcinoma cultures; assay: Cell growth inhibition, MTT assay, carcinoma; format: cell-based, human; details: 18 hours treatment, 72 hours total growth time
Method: FIG. 6C: Carcinoma cells and HDF's were seeded overnight into 96 well plates at 2000 and 6000 cells per well respectively. Cisplatin preparations were added to wells for 18 hours as noted on the graph than washed out. After 72 hours cell viability of assessed by a commercial MTT assay (WST assay, Boehringer Mannheim). Wells were executed in duplicate.
Nanocapsules were prepared as described in Example 1 to encapsulate cisplatin, a […] molecule and a common cancer chemotherapeutic with serious side effects. A coating weight ratio of 1:100 was used and irregular nanocapsules of 29±3 nm were produced. […] Cells were seeded overnight into 96 well plates, treated for 18 hours with increasing amounts of encapsulated or unencapsulated drug, then assessed for cell growth inhibition using an MTT assay […] for total growth time of 72 hours. Results are illustrated in FIG. 6C.

[2] = system: human dermal fibroblast (HDF) cultures; assay: Cell growth inhibition, MTT assay, fibroblasts; format: cell-based; details: 18 hours treatment, 72 hours total growth time
Method: Cells were seeded overnight into 96 well plates, treated for 18 hours with increasing amounts of encapsulated or unencapsulated drug, then assessed for cell growth inhibition using an MTT assay 48 hours later for total growth time of 72 hours.

Which results are given for N.N.[Cl][Pt][Cl] [unencapsulated drug, cisplatin]?
inhibition concentration (IC50) [1]: 525 µg/mL; Cell death of nontarget cells [2]: killed
